Laboratory results taken from ChEMBL document CHEMBL1158004, “New alkaloids from the indopacific sponge Stylissa carteri” (J Nat Prod, 1999).
In brackets after ≈: the same amount, converted by molar mass.

Test: Cytotoxicity against human MONO-MAC 6 cells assessed as [3H]thymidine incorporation after 48 hrs
Type: functional, cell-based

Structure (SMILES)	IC50 [µg/mL]
NC1=N/C(=C2/CCNC(=O)c3[nH]ccc32)C(=O)N1 [DEBROMOHYMENIALDISINE]	2.4 (≈ 9.79 µM)
NC1=NC(=O)/C(=C2\CCNC(=O)c3[nH]c(Br)cc32)N1 [HYMENIALDISINE]	0.2 (≈ 0.617 µM)
